In US5990083A, “Multicatalytic protease inhibitors” (Cephalon, Inc., priority 1997, dated 1999):
Several values for one entry are separate records, joined by “and”; a condition that tells them apart may be missing. Equal values may be shown once.

Target: T1, human MCP (Homo sapiens, UniProt P28074+Q99436)
T1 construct: Samples of human liver and brain obtained post-mortem were used for isolation and partial purification of MCP; from tissue; host or cells: human liver and brain, post-mortem
Assay: Determination of IC50 values for MCP inhibitors (chymotrypsin-like or trypsin-like activity of MCP)
Assay type: biochemical
Details: for % Inhibition (1 μM): 1 μM inhibitor
Procedure: Samples of human liver and brain obtained post-mortem were used for isolation and partial purification of MCP by ion-exchange chromatography, ammonium sulfate precipitation, and gel filtration (e.g., Driscoll and Goldberg, Proc. Natl. Acad. Sci. 86, 787-791 (1989); Yamamoto et al., Biochim, Biophys. Acta 882, 297-304 (1986). For either starting material, tissue was homogenized in 10 volumes of 20 mM Tris-HCl (pH 7.5) containing 20% glycerol. Following centrifugation at 40,000×g for 30 minutes, proteolytic activity of the chymotrypsin-like component of MCP could be detected in the supernatant (see below). The supernatant was fractionated on a DEAE-Sepharose Fast Flow column equilibrated in homogenization buffer. For each liter of supernatant, 250 ml of resin was used. Following sample loading, the column was washed with ^~ 10 volumes homogenization buffer, and proteins were eluted with a linear NaCl gradient of from 0 to 400 mM (21 for 250 ml resin). Fractions were assayed for MCP activity, and the active fractions were pooled and subjected to precipitation with (NH4)2 SO4 at 80% saturation. Precipitated proteins were collected by centrifugation, resuspended in homogenization buffer, and loaded on a Sephacryl S300HR column (500 ml resin volume) that had been standardized using bovine serum albumin (68 kDa). A single peak of MCP activity was eluted with a molecular weight of ^~ 650 kDa. This preparation was free of other measurable proteolytic activities and maintained its MCP activity upon storage at 4° C. for >6 months. This preparation was used for most of the experiments. Further fractionation of the preparation on an hydroxyapatite-Ultrogel column (Yamamoto et al., supra) yielded a more highly purified enzyme, which according to denaturing SDS-polyacrylamide gel electrophoresis was comprised of the expected >10 subunits ranging in Mr from 20 to 35 kDa.
The procedure for MPC isolation described above generated an enzyme complex whose proteolytic activities were latent, but which could be activated by addition of low concentrations (0.02-0.05%) of SDS (Yamamoto et al., supra). The chymotrypsin-like activity was assayed according to the following procedure: in 96 well microtiter plates, human MCP was diluted 4 to 10-fold in homogenization buffer containing 0.04% SDS. A calorimetric substrate MeOSuc-EVKM-para-nitroanilide (methoxysuccinyl-Glu-Val-Lys-Met-pNa), purchased from Bachem Bioscience Inc., King of Prussia, Pennsylvania was added to a final concentration of 100 μM from a stock solution of 10 mM in dimethylsulfoxide. Reaction volumes were 200 μl per well. After incubation for various periods of time at 37° C., the concentration of free pNa was determined on a Biotech EL-340 microplate reader, reading absorption at 490 nm. Protease activity was determined under conditions in which substrate hydrolysis increased linearly with time and the change in absorption was proportional to the concentration of free pNa. Alternatively, a fluorogenic substrate was used, methoxysuccinyl-Phe-Leu-Phe-amidomethylcoumarin (Enzyme Systems Products, Dublin, Calif.), and the change in fluorescence monitored at an excitation of 390 nm, and an emission at 460 nm.
The trypsin-like activity of human MCP was assayed as described above with the following modifications. Reactions were carried out in Tris-glycerol buffer (pH 9.5) supplemented with 1 mM 2-mercaptoethanol, and the substrate was a fluorogenic substrate, Benzyloxycarbonyl--Phe--Arg--AMC (100 μM).
After incubation for various periods of time at 37° C., the concentration of free AMC was determined on a Fluoroskan II spectrofluorimeter with an excitation filter of 390 nm and an emission filter of 460 nm. Protease activity was determined under conditions in which substrate hydrolysis increased linearly with time and the change in fluorescence was proportional to the concentration of free AMC. […]

[1] = Table 5, first series, enzyme incubated with inhibitor 15 minutes at 37° C. prior to substrate
[2] = Table 5, second series (Examples 36-38), enzyme incubated with inhibitor 15 minutes at 37° C. prior to substrate

With `CCCC[C@@H](C=O)NC(=O)[C@H](CCCNC(=N)NS(=O)(=O)c1c(C)c(C)c2c(c1C)CCC(C)(C)O2)NC(=O)C(CCCCCCCC(=O)OC)C1CCCC1` (stereo partly drawn) [Compound 22, 9-Methoxycarbonyl-2-cyclopentyl-nonanoyl-N^g-(2,2,5,7,8-pentamethylchroman-6-sulfonyl)-L-arginyl-L-norleucinal] the IC50 [1] was 110 nM.

`CCCC[C@@H](C=O)NC(=O)[C@H](CCCN=C(N)NS(=O)(=O)c1c(C)c(C)c2c(c1C)CCC(C)(C)O2)NC(=O)CCCCCCCC(=O)OC` [Compound 30, Monomethylazelayl-N^g-(2,2,5,7,8-pentamethylchroman-6-sulfonyl)-L-arginyl-L-norleucinal] was tested, and the IC50 [1] was > 100 nM.

`COC(=O)CCCCCCCC(=O)N[C@H](CCCNC(N)=NS(=O)(=O)c1c(C)c(C)c2c(c1C)CCC(C)(C)O2)C(=O)N[C@H](C=O)CC(C)C` [Compound 29, Monomethylazelayl-N^g-(2,2,5,7,8-pentamethylchroman-6-sulfonyl)-D-arginyl-L-leucinal] was tested, and the IC50 [1] was > 300 nM.

Molecule `CC(C)C[C@@H](C=O)NC(=O)[C@H](CCCNC(=N)N[N+](=O)[O-])NC(=O)c1ccc2ccccc2c1` [Compound 37, 2-Naphthoyl-N^g-nitro-L-arginyl-L-leucinal] has an IC50 [2] of 250 nM.

With `CC(C)C[C@H](NC(=O)[C@H](CCCNC(=N)N[N+](=O)[O-])NC(=O)C(CCCCCCCCC#N)C1CCCC1)C(=O)CCl` (single isomer, unassigned; isomer b) [39 (Isomer b), 10-Cyano-2-cyclopentyl-decanoyl-N^g-nitro-L-arginyl-L-leucine chloromethylketone] the IC50 (Table 7) was > 1000 nM and the “% Inhibition (1 μM)” value (Table 7, 1 µM) was 21%.

`Cc1c(C)c(S(=O)(=O)NC(N)=NCCC[C@H](NS(=O)(=O)CCCCCCC#N)C(=O)N[C@H](C=O)CC(C)C)c(C)c2c1OC(C)(C)CC2` [Compound 36, 6-Cyano-hexane-1-sulfonyl-N^g-(2,2,5,7,8-pentamethylchroman-6-sulfonyl)-L-arginyl-L-leucinal] was tested, and the IC50 [2] was > 100 nM.

`COC(=O)CCCCCCCC(=O)N[C@@H](CCCN=C(N)NS(=O)(=O)c1ccc(C)cc1)C(=O)N[C@H](C=O)CC(C)C` [Compound 31, Monomethylazelayl-N^g -(p-toluenesulfonyl)-L-arginyl-L-leucinal] showed an IC50 [1] of 75 nM.

`COC(=O)CCCCCCCC(=O)N[C@@H](CCCN=C(N)N[N+](=O)[O-])C(=O)N[C@H](C=O)CC(C)C` [Compound 26, Monomethylazelayl-N^g -nitro-L-arginyl-L-leucinal] was tested, and the IC50 [1] was 40 nM.

With `COC(=O)CCCCCCCC(=O)N[C@@H](CCCNC(N)=NS(=O)(=O)c1c(C)cc(OC)c(C)c1C)C(=O)N[C@H](C=NNC(N)=O)CC(C)C` [Compound 32, Monomethylazelayl-N^g-(4-methoxy,2,3,6-trimethyl-1-sulfonyl)-L-arginyl-L-leucinal semicarbazone] the IC50 [1] was 220 nM.

With `CC(C)C[C@H](NC(=O)[C@H](CCCNC(=N)N[N+](=O)[O-])NC(=O)C(CCCCCCCCC#N)C1CCCC1)C(=O)CCl` (single isomer, unassigned; isomer a) [39 (Isomer a), 10-Cyano-2-cyclopentyl-decanoyl-N^g-nitro-L-arginyl-L-leucine chloromethylketone] the IC50 (Table 7) was > 1000 nM and the “% Inhibition (1 μM)” value (Table 7, 1 µM) was 31%.

Work on `COC(=O)CCCCCCCC(=O)N[C@@H](CCCNC(N)=NS(=O)(=O)c1c(C)cc(OC)c(C)c1C)C(=O)N[C@H](C=NNC(N)=S)CC(C)C` [Compound 33, Monomethylazelayl-N^g-(4-methoxy,2,3,6-trimethyl-1-sulfonyl)-L-arginyl-L-leucinal thiosemicarbazone] yielded an IC50 [1] of 700 nM.

With `COC(=O)CCCCCCCC(=O)N[C@@H](CCCNC(=N)NS(=O)(=O)c1c(C)c(C)c2c(c1C)CCC(C)(C)O2)C(=O)N[C@H](C=O)CC(C)C` [Compound 28, Monomethylazelayl-N^g-(2,2,5,7,8-pentamethylchroman-6-sulfonyl)-L-arginyl-L-leucinal] the IC50 [1] was 20 nM.

For `N#CCCCCCCCCC(C(=O)N[C@@H](CCCNC(N)=N[N+](=O)[O-])C(=O)NC(Cc1ccccc1)C(=O)CF)C1CCCC1` (stereo partly drawn) [Example 42, 10-Cyano-2-cyclopentyl-decanoyl-N^g-nitro-L-arginyl-phenylalanine fluoromethylketone], the IC50 (Table 7) was > 1000 nM and the “% Inhibition (1 μM)” value (Table 7) was 15%.

Molecule `CON=C[C@H](CC(C)C)NC(=O)[C@H](CCCN=C(N)N[N+](=O)[O-])NC(=O)C(CCCCCCCCC#N)C1CCCC1` (stereo partly drawn) [Compound 18, 10-cyano-2-cyclopentyl-decanoyl-N^g-nitro-L-arginyl-L-leucinal-O-methyloxime] has an IC50 [1] of 700 nM.

For `CC(C)C[C@@H](C=O)NC(=O)[C@H](CCCNC(=N)N[N+](=O)[O-])NC(=O)C(CCCCCCCCNS(=O)(=O)C(F)(F)F)C1CCCC1` (stereo partly drawn) [Compound 25, 10-(trifluoromethanesulfonyl)amino-2-cyclopentyl-decanoyl-N^g-nitro-L-arginyl-L-leucinal], the IC50 [1] was 8 nM and 5 nM.

With “Monomethylazelayl-N^g -nitro-L-arginyl-L-phenylalaninal [Compound 27]” the IC50 [1] was 130 nM.

`CC(C)CC(NC(=O)[C@H](CCCNC(N)=N[N+](=O)[O-])NC(=O)C(CCCCCCCCC#N)C1CCCC1)B1OC(C)(C)C(C)(C)O1` (stereo partly drawn) [Example 40, 10-Cyano-2-cyclopentyl-decanoyl-N^g-nitro-L-arginyl-boroleucine pinacol ester] was tested, and the IC50 (Table 7) was 6 nM and the “% Inhibition (1 μM)” value (Table 7) was 100%.

Molecule `COC(=O)CCCCCCCC(C(=O)N[C@@H](CCCNC(N)=N[N+](=O)[O-])C(=O)N[C@H](C=O)CC(C)C)C1CCCC1` (stereo partly drawn) [Compound 23, 9-Methoxycarbonyl-2-cyclopentyl-nonanoyl-N^g-nitro-L-arginyl-L-leucinal] has an IC50 [1] of 5 nM.

`COC(=O)CCCCCCCC(C(=O)N[C@@H](CCCNC(N)=NS(=O)(=O)c1c(C)cc(OC)c(C)c1C)C(=O)N[C@H](C=O)CC(C)C)C1CCCC1` (stereo partly drawn) [Compound 21, 9-Methoxycarbonyl-2-cyclopentyl-nonanoyl-N^g-(4-methoxy-2,3,6-trimethyl-benzene-1-sulfonyl)-L-arginyl-L-leucinal] gave an IC50 [1] of 30 nM.

For `Cc1c(C)c(S(=O)(=O)NC(=N)NCCC[C@H](NC(=O)C(CCCCCCCCC#N)C2CCCC2)C(=O)N[C@H](C=O)CC(C)C)c(C)c2c1OC(C)(C)CC2` (stereo partly drawn) [Compound 15, 10-Cyano-2-cyclopentyl-decanoyl-N^g-(2,2,5,7,8-pentamethylchroman-6-sulfonyl)-L-arginyl-L-leucinal], the IC50 [1] was 20 nM.

`COC(=O)CCCCCCCC(=O)N[C@@H](CCCNC(N)=NS(=O)(=O)c1c(C)cc(C)cc1C)C(=O)N[C@H](C=O)CC(C)C` [Compound 35, Methoxyazelayl-N^g-(2,4,6-trimethylbenzene-1-sulfonyl)-L-arginyl-L-leucinal] gave an IC50 [1] of 40 nM.

`CCNC(=O)C(=O)[C@H](CC(C)C)NC(=O)[C@H](CCCNC(N)=N[N+](=O)[O-])NC(=O)C(CCCCCCCCC#N)C1CCCC1` (single isomer, unassigned; isomer a) [41 (Isomer a), 10-Cyano-2-Cyclopentyl-decanoyl-N^g-nitro-L-arginyl-L-leucine alpha-ketoethylamide] was tested, and the IC50 (Table 7) was 22 nM and the “% Inhibition (1 μM)” value (Table 7, 1 µM) was 99%.
